Among the test systems are Enterococcus faecalis; Escherichia coli UB1005; Candida albicans CAN105; Pseudomonas aeruginosa; Staphylococcus hominis; Candida albicans; Staphylococcus aureus.
Assay in all cases: ≥ marks a high value that may be exact or a test limit, other limits are often not marked, values filed in µg/mL are converted to µM
Experiment [1] has as its system Escherichia coli ATCC 25922.
Experiment [2] has as its system Salmonella enterica subsp. enterica serovar Enteritidis BNCC 103134.
Experiment [3] deals with Bacillus subtilis ATCC 6633.
The subject of experiment [4] is Staphylococcus aureus ATCC 25923.
Experiment [5] concerns Pseudomonas aeruginosa H187.
The test system of experiment [6] is Staphylococcus aureus SAP 0017.
In experiment [7] the test system is Staphylococcus aureus K147.
Experiment [8] has as its system Staphylococcus epidermidis.
The test system of experiment [9] is Pseudomonas aeruginosa DSM 1117.
The test system of experiment [10] is Escherichia coli DSM 1103.
For experiment [11], the system named is Salmonella typhimurium KCTC 1926.
Experiment [12] relates to Staphylococcus aureus CCARM 3001.
Experiment [13] relates to Bacillus subtilis KCTC 3068.
The test system of experiment [14] is Pseudomonas aeruginosa CCARM 2109.
Experiment [15] deals with Staphylococcus aureus DSM 1104.
Experiment [16] has as its system Staphylococcus aureus KCTC 1621.
Experiment [17] deals with Pseudomonas aeruginosa CCARM 2095.
In experiment [18] the test system is Staphylococcus epidermidis DSM 1798.
Experiment [19] concerns Staphylococcus aureus CCARM 3089.
The test system of experiment [20] is Pseudomonas aeruginosa CCARM 2092.
Experiment [21] concerns Staphylococcus aureus CCARM 3543.
In experiment [22] the test system is Pseudomonas aeruginosa KCTC 1637.
Experiment [23] concerns Escherichia coli KCTC 1682.
Experiment [24] concerns Staphylococcus epidermidis KCTC 1917.
Experiment [25] relates to Pseudomonas aeruginosa ATCC 27853.
The subject of experiment [26] is Acinetobacter baumannii 4-MRGN.
The subject of experiment [27] is Pseudomonas aeruginosa PAO1.
In experiment [28] the test system is Acinetobacter baumannii ATCC 19606.
Experiment [29] has as its system Corynebacterium jeikeium ATCC BAA-949.
Experiment [30] relates to Pseudomonas aeruginosa ATCC 19660.
Experiment [31] has as its system Pseudomonas aeruginosa ME.
For experiment [32], the system named is Pseudomonas aeruginosa AA43.
Experiment [33] relates to Staphylococcus epidermidis ATCC 12228.
The subject of experiment [34] is Pseudomonas aeruginosa R1.

In brackets after ≈: the same amount, converted by molar mass. Several values for one entry are separate records, joined by “and”; a condition that tells them apart may be missing. Equal entries are not always repeated.

On to `NC(=O)C[C@H](NC(=O)[C@H](Cc1cnc[nH]1)NC(=O)[C@H](CC(N)=O)NC(=O)[C@@H](N)Cc1ccc(O)cc1)C(=O)N[C@@H](Cc1ccccc1)C(=O)O` [YNHNF], for which the MIC in experiment [1] is 150 µM (≈ 104 µg/mL); in experiment [2], no less than 300 µM; in [3], no less than 300 µM; in [4] it was 300 µM (≈ 208 µg/mL).
Regarding `CC[C@H](C)[C@H](NC(=O)CNC(=O)[C@@H](NC(=O)[C@H](CCCCN)NC(=O)[C@H](CCCCN)NC(=O)[C@H](Cc1ccccc1)NC(=O)[C@H](CC(C)C)NC(=O)[C@H](CCCCN)NC(=O)[C@H](Cc1c[nH]c2ccccc12)NC(=O)[C@@H](N)CCCCN)[C@@H](C)CC)C(=O)NCC(=O)N[C@@H](C)C(=O)N[C@H](C(=O)N[C@@H](CC(C)C)C(=O)N[C@H](C(=O)N[C@H](C(=O)NCC(=O)N[C@@H](CC(C)C)C(=O)N1CCC[C@H]1C(=O)N[C@@H](C)C(=O)N[C@@H](CC(C)C)C(=O)N[C@H](C(=O)N[C@@H](CO)C(=O)O)[C@@H](C)CC)[C@@H](C)O)[C@@H](C)O)C(C)C` [KWKLFKKIGIGAVLTTGLPALIS], the MIC in experiment [5] was 13 µM (≈ 32 µg/mL); in experiment [6], 26.1 µM (≈ 64 µg/mL); in experiment [7], 26.1 µM (≈ 64 µg/mL); in the experiment on Enterococcus faecalis it was 26.1 µM (≈ 64 µg/mL); in the experiment on Escherichia coli UB1005, 5.3 µM (≈ 13 µg/mL); in [8], 17.5 µM (≈ 43 µg/mL). Moreover, the MIC against Candida albicans CAN105 was 26.1 µM (≈ 64 µg/mL).
`CC(C)[C@H](NC(=O)[C@H](CCCCN)NC(=O)[C@H](CCCN=C(N)N)NC(=O)[C@H](CCCCN)NC(=O)[C@H](CCCCN)NC(=O)[C@H](CCCCN)NC(=O)[C@@H]1CCCN1C(=O)[C@H](CCC(N)=O)NC(=O)[C@H](CO)NC(=O)[C@H](Cc1c[nH]c2ccccc12)NC(=O)[C@H](CCC(=O)O)NC(=O)[C@@H](NC(=O)[C@H](Cc1c[nH]c2ccccc12)NC(=O)[C@H](Cc1c[nH]c2ccccc12)NC(=O)[C@@H](NC(=O)[C@H](CCC(=O)O)NC(=O)[C@H](Cc1c[nH]c2ccccc12)NC(=O)[C@H](Cc1c[nH]c2ccccc12)NC(=O)[C@@H](NC(=O)[C@H](CCC(=O)O)NC(=O)[C@@H](N)CCCCN)[C@@H](C)O)[C@@H](C)O)[C@@H](C)O)C(=O)O` [KETWWETWWTEWSQPKKKRKV]: the minimum inhibitory concentration (MIC) is no less than 87 µM in experiment [9]; no less than 87 µM in experiment [10]; no less than 64 µM in [11]; no less than 64 µM in [12]; 8 µM (≈ 22.8 µg/mL) in [13]; no less than 32 µM in experiment [14]. Also, the MIC in [15] is no less than 87 µM; in experiment [16], no less than 64 µM; in experiment [17], no less than 64 µM; in experiment [18] it was no less than 87 µM; in experiment [19], no less than 64 µM; in experiment [20], no less than 32 µM. In addition, the MIC in experiment [21] was no less than 64 µM; in [22], no less than 64 µM; in [23], no less than 32 µM; in experiment [24], no less than 64 µM.
Consider `C[C@H](N)C(=O)N[C@H](C(=O)N[C@@H](CS)C(=O)N[C@@H](Cc1ccc(O)cc1)C(=O)N[C@H]1CSSC[C@@H](C(=O)N[C@@H](C)C(=O)N[C@H](C(=O)N[C@@H](CCCN=C(N)N)C(=O)O)[C@@H](C)O)NC(=O)[C@H](CCCN=C(N)N)NC(=O)CNC(=O)[C@H]([C@@H](C)O)NC(=O)[C@H](CCCN=C(N)N)NC1=O)[C@@H](C)O` [ATCYCRTGRCATR], for which the MIC in [25] is greater than 99.9 µM; in experiment [26] it was no less than 99.9 µM.
Consider `CC[C@H](C)[C@H](NC(=O)CN)C(=O)N[C@@H](Cc1ccccc1)C(=O)N[C@@H](CO)C(=O)N[C@@H](CCCCN)C(=O)N[C@@H](CC(C)C)C(=O)N[C@@H](C)C(=O)NCC(=O)N[C@@H](CCCCN)C(=O)N[C@@H](CCCCN)C(=O)N[C@H](C(=O)N[C@@H](CCCCN)C(=O)N[C@@H](CC(N)=O)C(=O)N[C@@H](CC(C)C)C(=O)N[C@@H](CC(C)C)C(=O)N[C@H](C(=O)N[C@@H](CO)C(=O)NCC(=O)N[C@@H](CC(C)C)C(=O)N[C@@H](CCCCN)C(=O)NCC(N)=O)[C@@H](C)CC)[C@@H](C)CC` [GIFSKLAGKKIKNLLISGLKG], for which the MIC in the experiment on Pseudomonas aeruginosa was 4 µM (≈ 8.74 µg/mL); in experiment [27] it was 4 µM and > 2.01 µM; in experiment [28], 1.56 µM (≈ 3.41 µg/mL); against Staphylococcus hominis, 1 µM (≈ 2.18 µg/mL); in experiment [1], 1.56 µM (≈ 3.41 µg/mL); in the experiment on Candida albicans, 2.83 µM (≈ 6.18 µg/mL). The MIC was 0.125 µM (≈ 0.273 µg/mL) in experiment [29]; 16 µM (≈ 35 µg/mL) in [30]; 8 µM (≈ 17.5 µg/mL) in [31]; 4.03 µM (≈ 8.8 µg/mL) in experiment [32]; 8 µM (≈ 17.5 µg/mL) in experiment [8]; 4 µM and 3.12 µM in experiment [25]. Moreover, the MIC in the experiment on Staphylococcus aureus was 64 µM and 100 µM; in experiment [33], 3.12 µM (≈ 6.82 µg/mL); in experiment [4] it was greater than 100 µM; in experiment [34], 2 µM (≈ 4.37 µg/mL).

(Values after DBAASP.)
